In patent US5387710A, “Ethanolamine derivatives having sympathomimetic and anti-pollakiuria activities” (Fujisawa Pharmaceutical Co., Ltd., priority 1992, dated 1995):
Counter-ions that a name gives are not always drawn.

Legend:
[1] = system: isolated non-pregnant rat uterus; assay: Effect on isolated non-pregnant rat uterus (spontaneous contractions, organ bath); type: cell-based; details: 20 min, isolated uterine horn strip of estradiol-treated female SD rats, Locke solution 37° C., observed over 20 minutes
Protocol: Effect on isolated non-pregnant rat uterus:
Female SD rats (150~180 g) were used. 48 and 24 hours prior to use, rats were given estradiol (ovahormon benzoat: Trademark, Teikoku Hormone Mfg. Co., Ltd.) subcutaneously at a dose of 40 μg/rat to induce oestrus. The animals were killed and uterine horns were removed. Each strip was placed in an organ bath containing 25 ml Locke solution aerating with 95% O2, 5% CO2 at 37° C. under 1 g tension. Contractions were recorded isometrically. After the spontaneous contractions were of a uniform size, test compound was added to organ bath. The motility was observed over a 20 minutes period. Effect of test compound was calculated by comparing contractions before and after test compound.

[2] = system: isolated rat distal colon; assay: Effect on isolated rat distal colon (spontaneous contractions, organ bath); type: cell-based; details: 0.5 h, isolated distal colon strip of male SD rats, Tyrode solution 37° C., observed over 30 minutes
Protocol: Effect on isolated rat distal colon:
Male SD rats (180~230 g) were used. Animals were fasted for 24 hours prior to experiment. Distal colon was removed immediately after sacrifice and placed in an organ bath containing 25 ml Tyrode solution aerating with 95% O2, 5% CO2 at 37° C. The strip was mounted under 0.5 g tension and spontaneous contractions were recorded isometrically. After the mobility was of a uniform size, test compound was added to an organ bath and the contractions were observed over a 30 minutes period. Effect of test compound was calculated by comparing contractions before and after test compound.

Question: With `CCOC(=O)COc1ccc2c(c1)C[C@H](NC[C@H](O)c1cccc(Cl)c1)CCC2` [3-2), (1R,6'R)-2-[(3-Ethoxycarbonylmethoxy-6,7,8,9-tetrahydro-5H-benzocyclohepten-6-yl)amino]-1-(3-chlorophenyl)ethanol] as the compound, how does the IC50 [1] read?
Answer: Its IC50 is 0.24 µM.

Question: What about the IC50 [2] of the same compound?
Answer: The IC50 was 0.00066 µM.

Question: How did the IC50 [1] turn out when `CCOC(=O)COc1ccc2c(c1)C[C@@H](NC[C@H](O)c1cccc(Cl)c1)CCC2` [2-3), (1R,6'S)-2-[(3-Ethoxycarbonylmethoxy-6,7,8,9-tetrahydro-5H-benzocyclohepten-6-yl)amino]-1-(3-chlorophenyl)ethanol hydrochloride] was run?
Answer: The IC50 was 0.44 µM.

Question: What about the IC50 [2] of the same compound?
Answer: Its IC50 is 0.00084 µM.

Question: With `CCOC(=O)COc1ccc2c(c1)CC(NC[C@H](O)c1cccc(Cl)c1)CCC2` (mixture of isomers) [Example 1, (1R,6'R)- and (1R,6'S)-2-[(3-ethoxycarbonyl-methoxy-6,7,8,9-tetrahydro-5H-benzocyclohepten-6-yl)amino]-1-(3-chlorophenyl)ethanol hydrochloride] as the compound, how does the IC50 [1] read?
Answer: Its IC50 is 0.2 µM.

Question: What about the IC50 [2] of the same compound?
Answer: The IC50 was 0.00068 µM.
